Earlier results on 1 compound are cited in article PMC6906348 (Therapeutic Advances in Medical Oncology, 2019).

Series [1] concerns MET-dependent tumor models. To be noted: at well tolerated doses; cited from earlier work.
For series [2], the system named is MET-amplified experimental HCC tumors. To be noted: cited from earlier work.

As to `CNC(=O)c1ccc(-c2cnc3ncc(Cc4ccc5ncccc5c4)n3n2)cc1F` [capmatinib], the “effect on MET-dependent tumor models” value in series [1] was “causes regression”. The “sensitivity of tumors to capmatinib” value in series [2] is given as “highly sensitive”.
